# According to patent US20040120932A1, “In vitro-derived adult pluripotent stem cells and uses therefor” (priority 2000, published 2004):
# Legend:
# cardiac actin (“cACT”) = assay: Semi-quantitative RT-PCR of cardiac actin (cACT) gene expression; type: cell-based, human; conditions: NUCREM cells treated with 1-2 μM retinoic acid, day five (treatment regimen 3); ±118% SEM, three experiments
# Method: (§1) Subsequent to cyclin B treatment, the cultures of in vitro derived adult pluripotent stem cells were cultured in the presence of approximately 1-2 μM retinoic acid (“RA”) (Sigma, St. Louis) for five (5) to 10 days. […] By day five (5) of retinoic acid treatment, approximately 50% of the cells in culture attained a neuron-like morphology (FIG. 1). At day five of RA treatment (treatment regimen 3), RNA was extracted from the cultures for RT-PCR analysis. […]
# (§2) RT-PCR was performed using the QIAGEN® OneStep RT-PCR Kit (Qiagen Inc., Valencia, Calif.) according to the manufacturer's instructions. […] To control for the quality of the extracted RNA and to serve as an internal quantification marker, human glyceraldehyde 3-phosphate dehydrogenase (“GAPDH”) oligonucleotide primers were included in the RT-PCR reaction.
# (§3) The RT-PCR products were run out on a 2% agarose gel, which was then stained with ethidium bromide. The intensity of the resultant DNA bands were quantified using the PHORETIX™ TotalLab densitometry software package developed by Nonlinear USA (Durham, N.C.). […]
# α1-antitrypsin (“αAT”) = assay: Semi-quantitative RT-PCR of α1-antitrypsin (αAT) gene expression; type: cell-based, human; conditions: NUCREM cells treated with 1-2 μM retinoic acid, day five (treatment regimen 3); ±94% SEM, three experiments
# Method: as §1, §2, §3
# [1] = test system: in vitro derived adult pluripotent stem cells (“NUCREM™ cells”); assay: Retinoic acid induced differentiation of in vitro derived adult pluripotent stem cells (morphology); type: cell-based, human; conditions: approximately 1-2 μM retinoic acid, day five
# Method: Subsequent to cyclin B treatment, the cultures of in vitro derived adult pluripotent stem cells were cultured in the presence of approximately 1-2 μM retinoic acid (“RA”) (Sigma, St. Louis) for five (5) to 10 days. […] By day five (5) of retinoic acid treatment, approximately 50% of the cells in culture attained a neuron-like morphology (FIG. 1). At day five of RA treatment (treatment regimen 3), RNA was extracted from the cultures for RT-PCR analysis.
# human telomerase (“TRT”) = assay: Semi-quantitative RT-PCR of telomerase (TRT) gene expression; type: cell-based; conditions: NUCREM cells subsequently treated with 1-2 μM retinoic acid, day five (treatment regimen 3)
# Method: 5-aza-2′-deoxycytidine (Sigma, St. Louis) was added at a concentration of 10-25 μM to cultures of human adult keratinocytes that were approximately 40% to 80% confluent. These cultures were further incubated for approximately four (4) days at 37° C. in an atmosphere of 5-10% CO2. After four days in the presence of 5-aza-2′-deoxycytidine, trichostatin A (Sigma, St. Louis) was added to the cultures at a concentration of 100-250 ng/ml. Cultures were further incubated for approximately one (1) day, as described above. RNA was extracted from some of the aliquots of cultures at this point (treatment regimen 1) for subsequent RT-PCR analysis. Other aliquots of cultures were subsequently treated as follows. […]
# as §2, §3
# [2] = test system: neurofilament heavy chain (“NF”); assay: Semi-quantitative RT-PCR of neurofilament heavy chain (NF) gene expression; type: cell-based, human; conditions: NUCREM cells treated with 1-2 μM retinoic acid, day five (treatment regimen 3); ±45% SEM, three experiments
# Method: as §1, §2, §3
compound,measurement,setting,value
CC1=C(/C=C/C(C)=C/C=C/C(C)=C/C(=O)O)C(C)(C)CCC1 [retinoic acid],increase in levels of expression of cACT relative to untreated keratinocytes,cardiac actin (“cACT”),667%
same,increase in levels of expression of αAT relative to untreated keratinocytes,α1-antitrypsin (“αAT”),343%
same,cells in culture that attained a neuron-like morphology,[1],approximately 50%
same,decrease in levels of expression of TRT,human telomerase (“TRT”),approximately 50%
same,increase in levels of expression of NF relative to untreated keratinocytes,[2],89%
